{
  "source": "patent US20140080762A1",
  "about": "“HYD1 PEPTIDES FOR RELAPSED CANCER” (H. LEE MOFFITT CANCER CENTER AND RESEARCH INSTITUTE, INC., priority 2011, published 2014)",
  "key": {"H929-60 cells [1]": {"tested_on": "H929-60 cells", "experiment": "Confocal microscopy of FAM-HYD1 binding, H929-60 cells", "assay_type": "cell-based, human", "conditions": "12.5 μg/ml FAM-HYD1, confocal microscopy", "method": "(§1) FIGS. 18A, 18B-1, 18B-2, and 18B-3. […] FIG. 18A: H929 and H929-60 cells (4×10^5 cells/ml) were incubated with FAM-HYD1 (6.25, 12.5 μg/ml) on ice for 15 minutes. FACS analysis was used to determine the geometric mean of fluorescence of FAM-HYD1 bound to H929 and H929-60 cells. A representative of three independent experiments is shown. A student's t-test was performed to determine significance (* denotes p<0.05). FIGS. 18B-1, 18B-2, and 18B-3: When the dose of FAM-HYD1 was increased to 12.5 μg/ml FAM-HYD1 binding to plasma membrane was detected in the resistant cell line as determine by confocal microscopy.\n(§2) To assess whether (a) HYD1 bound the cell surface and (b) whether binding of HYD1 was reduced in the resistant cell line FAM-HYD1 was used to image peptide binding in the parental and resistant cell line by confocal microscopy. A 35 mm glass bottom microwell dishes (Mattek cultureware, Ashland, Mass.) were plated with 10 uL Cell-tak (BD biosciences) per manufacture's instructions. Media containing 1 uM Alexa Fluor 594 wheat germ agglutinin (WGA) (Invitrogen) and 20 uM Hoechst 33342 (Invitrogen) was placed back in the plates and the samples were incubated for 30 minutes. After 30 minutes, the cells were washed and treated with media containing 6.25 μg/ml FAM conjugated HYD1 for 10 minutes. […]"}, "H929 cells": {"tested_on": "H929 cells", "experiment": "Confocal microscopy of FAM-HYD1 binding, H929 cells", "assay_type": "cell-based, human", "conditions": "6.25 μg/ml FAM-HYD1, 10 minutes", "method": "FIGS. 11A-11E. […] FIG. 11B: Loss of mitochondrial membrane […] was determined using DiOC6 staining following 2 hours of HYD1 treatment in H929 and H929-60 (* denotes p<0.05 n=9, Student's t-test). FIG. 11C: ATP levels were determined in the H929 and H929-60 cell lines following 6 hours of HYD1 (50 ug/ml) treatment. (* denotes p<0.05 and # denotes p>0.05, n=9, Student's t-test). FIGS. 11D and 11E: H929 cell (FIG. 11D) and H929-60 cells (FIG. 11E) were stained with Alexa Fluor 594 wheat germ agglutinin (WGA) and Hoechst 33342 for 30 minutes. 6.25 μg/ml FAM-HYD1 was added 10 minutes before images were taken. The experiment was repeated 3 independent times and shown is a representative experiment.\nas §2"}, "H929-60 cells [2]": {"tested_on": "H929-60 cells", "experiment": "FAM-HYD1 binding to cells by FACS, H929-60 cells", "assay_type": "cell-based, human", "method": "as §1"}, "MM cells": {"tested_on": "MM cells", "experiment": "Characterisation of HYD1-induced cell death in MM cells (apoptosis markers, autophagy, NAC protection)", "assay_type": "cell-based"}, "[3]": {"tested_on": "CD34+ hematopoietic progenitor cells", "experiment": "Colony forming assay, normal CD34+ hematopoietic progenitor cells", "assay_type": "cell-based", "conditions": "HYD1 12.5 and 50 μg/ml for 2 hrs; colonies counted day 12", "method": "(§3) CD34^+ hematopoietic progenitor cells were isolated from peripheral blood and treated for 2 hrs with HYD1 (12.5 and 50 μg/ml) and then plated in a methylcellulose media supplemented with growth factors supporting myeloid and erythroid colonies. Colonies were counted on day 12 post-plating. […] In addition, the inventors evaluated the toxicity of HYD1 in normal peripheral blood mononuclear cells (PBMC)."}, "[4]": {"tested_on": "peripheral blood mononuclear cells (PBMC)", "experiment": "Cell death in normal peripheral blood mononuclear cells", "assay_type": "cell-based", "conditions": "six hours treatment, up to doses of 50 μg/ml", "method": "as §3"}, "H929 engrafted tumor": {"tested_on": "H929 engrafted tumor", "experiment": "SCID-hu in vivo model, H929 engrafted tumor", "conditions": "8 mg/kg i.p. daily for 21 days", "method": "The SCID-hu model consists of implanting human fetal bone into the mammary mouse fat pad of SCID mice. The myeloma cells are subsequently injected directly into the bone and myeloma cells will engraft only in the area of the human bone. Human paraprotein can be measured in the mouse sera and levels represent a good marker for evaluating tumor burden and response to chemotherapy. Circulating kappa levels were measured on day 28 (baseline reading before peptide treatment), 35, 42 and 49 by ELISA, and tumor burden was determined by calculating the kappa levels on day X divided by the baseline kappa levels recorded on day 28 for each mouse. Shown in FIG. 2A is the antitumor response of H929 engrafted tumor when mice were given 8 mg/kg intraperitoneal (i.p.) injections daily for 21 days starting on day 28. […] Mice were humanely euthanized at […] as several control mice had tumor protruding from the bone implant. […] The inventors anticipate that because HYD1 induces cell death independent of apoptosis and blocks cell adhesion mediated drug resistance to standard therapy that the most dramatic in vivo activity will be realized when combined with standard therapy."}, "H929-60 cells [5]": {"tested_on": "H929-60 cells", "experiment": "Cross-resistance of H929-60 cells to standard myeloma agents (annexin V FITC/PI, IC50)", "assay_type": "cell-based, human", "conditions": "24 hours; p>0.05", "method": "FIG. 19. H929-60 cells are not resistant to standard myeloma therapies. H929 and H929-60 cells were treated with increasing concentrations of melphalan or Velcade for 24 hours. After 24 hours, cells were stained with annexin V FITC/P1 for 45 minutes and acquired on FACScan. IC50 values were determined by linear regressions. […] Shown in the table of FIG. 19 is the mean and standard deviations of three independent experiments."}, "H929-60 cells [6]": {"tested_on": "H929-60 cells", "experiment": "HS-5 stroma co-culture model of drug resistance, H929-60 cells", "assay_type": "cell-based, human", "method": "FIGS. 15A-15C. […] FIG. 15A: H929 and H929-60 pre-incubated with CMFDA dye were adhered to 10,000 HS-5 cells for 2 hours. After 2 hours unadherent cells were removed and the fluorescence intensity was measured on a fluorescent plate reader. FIGS. 15B and 15C: H929 and H929-60 cells were adhered to HS-5 GFP cells for 24 hours. After 24 hours samples were treated with 15 μM melphalan or 16 nM velcade for 24 hours. Cell death was analyzed using a FACScalibur with the GFP expressing HS-5 cells being excluded from the analysis. In FIGS. 15A-15C, a representative of three independent experiments was shown. (*=p<0.05, n=9 or#=p>0.05, n=9 Students t-test).\nThe inventors reasoned that acquisition of resistance towards HYD1, which correlated with reduced functional binding to fibronectin, VCAM-1, and HS-5 stromal cells, would likely result in a compromised CAMDR phenotype. To test this premise, the inventors utilized the HS-5 co-culture model of drug resistance. H929 and the HYD1 resistant variant H929-60 cells were treated with either melphalan or velcade in the presence or absence of HS-5/GFP bone marrow stromal cells. As shown in FIGS. 15B and 15C, the HYD1 resistant cell line was not resistant in the co-culture bone marrow stroma model to melphalan or velcade, respectively."}, "[7]": {"biological_target": "human CD44 ectodomain (human) (UniProt P16070)", "sequence (P16070 21-649)": "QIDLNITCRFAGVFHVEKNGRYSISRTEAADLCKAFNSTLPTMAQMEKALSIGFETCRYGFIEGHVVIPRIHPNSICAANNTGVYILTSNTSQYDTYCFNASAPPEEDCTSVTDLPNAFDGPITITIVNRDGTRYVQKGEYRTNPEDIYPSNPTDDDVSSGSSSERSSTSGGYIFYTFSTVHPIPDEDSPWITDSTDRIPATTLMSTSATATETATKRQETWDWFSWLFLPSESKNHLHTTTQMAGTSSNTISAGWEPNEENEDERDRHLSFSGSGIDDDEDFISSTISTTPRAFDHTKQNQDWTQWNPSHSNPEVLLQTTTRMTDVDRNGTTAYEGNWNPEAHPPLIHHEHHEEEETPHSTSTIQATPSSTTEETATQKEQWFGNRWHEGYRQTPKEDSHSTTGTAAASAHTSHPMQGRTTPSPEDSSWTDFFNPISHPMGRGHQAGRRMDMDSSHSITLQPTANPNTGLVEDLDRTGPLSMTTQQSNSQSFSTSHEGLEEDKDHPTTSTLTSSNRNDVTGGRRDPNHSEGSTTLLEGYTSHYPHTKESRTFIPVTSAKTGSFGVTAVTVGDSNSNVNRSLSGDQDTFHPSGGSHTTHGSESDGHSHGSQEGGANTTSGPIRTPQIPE", "experiment": "SPR; experiment 12/05 LF"}, "[8]": {"biological_target": "human CD44 ectodomain (human) (UniProt P16070)", "experiment": "SPR; experiment 12/09"}, "[9]": {"biological_target": "human CD44 ectodomain (human) (UniProt P16070)", "experiment": "SPR; experiment 12/05"}, "[10]": {"biological_target": "human CD44 ectodomain (human) (UniProt P16070)", "experiment": "SPR; experiment 11/29"}, "[11]": {"tested_on": "epithelial prostate carcinoma cells", "conditions": "cited from earlier work"}, "CD44": {"tested_on": "CD44", "experiment": "Biotin-HYD1 pull-down assay (Mass-Spec, Western blot), CD44 in H929 membrane extract", "assay_type": "binding, human", "conditions": "NeutrAvidin beads", "protocol": "The first lane is 30 μg of membrane extract only. CD44 was detected by western blot analysis using a pan-CD44 antibody.\nSamples were spun at 15000 XG for minutes at 4 degrees and the supernatant was removed and membranes were pelleted at 100,000Xg for 15 minutes. Membrane pellets were solubilized in AP buffer containing 0.2% NP40 and protein was quantified using BCA reagents (Pierce, Rockford, Ill.). […] After one hour, the beads were washed twice in AP buffer and 50 ug of membrane extracts were added to a total volume of 500 μl and incubated with beads overnight at 4 degrees. The beads were washed five times in AP buffer containing 0.2% NP40 and samples were suspended in SDS-PAGE sample buffer and bound proteins were resolved by SDSPAGE.\nNeutrAvidin beads were used to reduce non-specific binding. […] The binding experiment was repeated using 300 ug of membrane extract. […] The inventors next determined whether α4 integrin could be detected by western blot analysis. […] To determine whether CD44 was indeed a direct binding partner of CD44 the inventors used recombinant CD44 and an ELISA as a readout of binding. The recombinant CD44 protein (purchased from Abnova) corresponds to Isoform 4 on Swiss Prot. The amino acid sequence is missing 224-266 and 223 is substituted S for T relative to the longest CD44 variant referred to as epican."}, "recombinant CD44": {"biological_target": "T1, recombinant CD44 (Homo sapiens, UniProt P16070)", "T1 construct": "purchased Abnova", "T1 sequence (P16070 21-699 isoform P16070-4)": "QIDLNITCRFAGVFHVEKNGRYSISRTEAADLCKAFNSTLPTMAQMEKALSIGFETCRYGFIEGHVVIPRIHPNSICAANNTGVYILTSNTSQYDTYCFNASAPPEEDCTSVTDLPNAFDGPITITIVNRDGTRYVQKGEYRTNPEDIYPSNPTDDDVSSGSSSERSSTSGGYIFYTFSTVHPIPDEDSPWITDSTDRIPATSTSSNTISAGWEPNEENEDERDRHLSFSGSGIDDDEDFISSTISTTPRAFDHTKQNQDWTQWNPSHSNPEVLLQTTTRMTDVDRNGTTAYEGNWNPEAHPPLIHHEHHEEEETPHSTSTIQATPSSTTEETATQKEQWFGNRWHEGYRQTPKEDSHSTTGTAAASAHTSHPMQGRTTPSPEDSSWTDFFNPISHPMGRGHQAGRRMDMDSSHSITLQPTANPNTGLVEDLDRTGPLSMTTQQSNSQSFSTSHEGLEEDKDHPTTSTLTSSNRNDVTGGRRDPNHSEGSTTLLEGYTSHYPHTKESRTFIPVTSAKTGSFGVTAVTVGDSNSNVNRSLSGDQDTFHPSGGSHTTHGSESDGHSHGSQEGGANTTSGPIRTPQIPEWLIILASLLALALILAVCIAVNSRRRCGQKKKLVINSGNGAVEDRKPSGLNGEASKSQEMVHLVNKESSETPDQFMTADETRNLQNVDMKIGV", "experiment": "Direct ELISA, recombinant CD44 binding to immobilized biotin-HYD1", "conditions": "NeutrAvidin coated 96-well plates", "protocol": "The pull down assay was directly coupled with an unbiased Mass-Spec analysis to identify HYD1 binding partners. […] NeutrAvidin beads were used to reduce non-specific binding. […] The binding experiment was repeated using 300 ug of membrane extract. […] The inventors next determined whether α4 integrin could be detected by western blot analysis. […] To determine whether CD44 was indeed a direct binding partner of CD44 the inventors used recombinant CD44 and an ELISA as a readout of binding. The recombinant CD44 protein (purchased from Abnova) corresponds to Isoform 4 on Swiss Prot. The amino acid sequence is missing 224-266 and 223 is substituted S for T relative to the longest CD44 variant referred to as epican."}, "U226 cells": {"tested_on": "U226 cells", "experiment": "Combination cytotoxicity assay with HYD1 in U226 cells", "assay_type": "cell-based", "conditions": "in vitro", "from_the_text": "FIG. 8. Table of combination index (CI) summary for combinations of HYD1 and SAHA, etoposide, arsenic, Vel, or doxorubicin in U226 cells."}},
  "note": "Entries after “also recorded” stand apart in the source; their conditions may differ.",
  "data": [
    {"compound": "FAM-kikmviswkg [FAM-HYD1]", "values": [
      {"measurement": "FAM-HYD1 binding to plasma membrane, H929-60", "setting": "H929-60 cells [1]", "result": "detected"},
      {"measurement": "localization of FAM-HYD1, H929", "setting": "H929 cells", "result": "localizes to the plasma membrane"},
      {"measurement": "reduction in FAM-HYD1 binding relative to the parental cell line", "setting": "H929-60 cells [2]; 6.25 ug/ml FAM-HYD1, FACS", "result": 2.7, "unit": "fold"},
      {"measurement": "FAM-HYD1 binding to the cell surface, H929-60 compared to H929", "setting": "H929-60 cells [2]; 6.25, 12.5 μg/ml, on ice 15 minutes", "result": "reduced binding; also recorded: decreased FAM-HYD1 binding"}
    ]},
    {"compound": "CC(=O)N[C@@H](CS)C(=O)O", "note": "[N-acetyl-L-cysteine]", "values": [
      {"measurement": "protection of MM cells from HYD1-induced death", "setting": "MM cells", "result": "partially protects"}
    ]},
    {"compound": "CC[C@@H](C)[C@@H](NC(=O)[C@H](N)CCCCN)C(=O)N[C@H](CCCCN)C(=O)N[C@H](CCSC)C(=O)N[C@@H](C(=O)N[C@@H](C(=O)N[C@H](CO)C(=O)N[C@H](Cc1c[nH]c2ccccc12)C(=O)N[C@H](CCCCN)C(=O)NCC(=O)O)[C@H](C)CC)C(C)C", "note": "[HYD1]", "values": [
      {"measurement": "colony formation of normal CD34+ cells", "setting": "[3]", "result": "did not inhibit colony formation; also recorded: did not inhibit differentiation or colony formation"},
      {"measurement": "cell death in PBMC", "setting": "[4]", "result": "did not induce cell death; also recorded: not sensitive"},
      {"measurement": "overt toxicity or weight loss", "setting": "H929 engrafted tumor", "result": "no overt toxicity or weight loss"}
    ]},
    {"compound": "O=C1c2c(O)ccc(O)c2C(=O)c2c(NCCNCCO)ccc(NCCNCCO)c21", "note": "[mitoxantrone]", "values": [
      {"measurement": "IC50 values, H929-60 compared to parental H929 (cross-resistance)", "setting": "H929-60 cells [5]", "result": "not resistant"}
    ]},
    {"compound": "N[C@@H](Cc1ccc(N(CCCl)CCCl)cc1)C(=O)O", "note": "[melphalan]", "values": [
      {"measurement": "melphalan induced cell death in HS-5 co-culture, H929-60", "setting": "H929-60 cells [6]; 15 μM melphalan for 24 hours", "result": "not resistant"},
      {"measurement": "IC50 values, H929-60 compared to parental H929 (cross-resistance)", "setting": "H929-60 cells [5]", "result": "not resistant; also recorded: not deemed to be significant"}
    ]},
    {"compound": "HYD1", "values": [
      {"measurement": "Kd", "setting": "[7]", "result": 26.7, "unit": "nM"},
      {"measurement": "Kd", "setting": "[8]", "result": 40.9, "unit": "nM"},
      {"measurement": "Kd", "setting": "[9]", "result": 22.6, "unit": "nM"},
      {"measurement": "Kd", "setting": "[10]", "result": 40.2, "unit": "nM"}
    ]},
    {"compound": "WIKSMKIVKG (HYD1 variant) [HYD1S, a scrambled derivative of HYD1]", "values": [
      {"measurement": "inhibition of cell adhesion to extracellular matrixes (laminin 5, laminin 332, collagen, fibronectin)", "setting": "[11]", "result": "not to inhibit cell adhesion"}
    ]},
    {"compound": "O=C(O)CCCC[C@@H]1SC[C@@H]2NC(=O)N[C@@H]21", "note": "[biotin]", "values": [
      {"measurement": "interaction with CD44 (pull-down)", "setting": "CD44", "result": "not"},
      {"measurement": "binding of recombinant CD44 (ELISA)", "setting": "recombinant CD44", "result": "relatively no binding"}
    ]},
    {"compound": "CC(C)C[C@H](NC(=O)[C@H](Cc1ccccc1)NC(=O)c1cnccn1)B(O)O", "note": "[Velcade]", "values": [
      {"measurement": "velcade induced cell death in HS-5 co-culture, H929-60", "setting": "H929-60 cells [6]; 16 nM velcade for 24 hours", "result": "not resistant"},
      {"measurement": "IC50 values, H929-60 compared to parental H929 (cross-resistance)", "setting": "H929-60 cells [5]", "result": "not resistant; also recorded: not deemed to be significant"}
    ]},
    {"compound": "COc1cccc2c1C(=O)c1c(O)c3c(c(O)c1C2=O)C[C@@](O)(C(=O)CO)C[C@@H]3O[C@H]1C[C@H](N)[C@H](O)[C@H](C)O1", "note": "[Doxorubicin]", "values": [
      {"measurement": "synergy in combination with HYD1 (combination index)", "setting": "U226 cells", "result": "greatest levels of synergy; also recorded: most synergistic"}
    ]}
  ]
}
